Reference: patent US20090098049A1, “Targeting transducible molecules to specific cell types” (The Regents of the University of California, priority 2004, published 2009)
Non-standard residues stand in square brackets, D forms with d. No end group written: not given here.

Key:
[1] = test system: CXCR4-expressing Namalwa lymphoma cells; assay: Namalwa lymphoma cell killing (trypan blue exclusion; apoptosis by DNA content); assay type: cell-based, Human; details: for cell viability / cell number (in words): 30 μM peptide, single peptides or domains in trans, FIG. 3A
Procedure: (a) Namalwa lymphoma cells were treated with 40 μM TATp53C′ or DV3-TATp53C′ peptide for 48 h. Cell viability was assessed by trypan blue exclusion. Data represents the mean and standard error from three independent experiments. […] Cells were treated with 5 μM peptide for 24 hours and analyzed for DNA content by flow cytometry. […] Cells were treated with indicated concentrations of cdk2 antagonists TAT-RxL or DV3-TAT-RxL peptides for 48 h. Cell viability was assessed by trypan blue exclusion. Data represents the mean and standard error from three independent experiments. (e) Namalwa lymphoma (CXCR4+) cells were treated with DV3-TATp53C′, TATp53C′ or DV3-TATp53MUT peptides for 24 hours. Apoptosis was determined by <2N DNA content as measured by flow cytometry and DNA staining.
Namalwa lymphoma cells were treated with 30 μM peptide for 48 h. Cell viability was assessed by trypan blue exclusion. Data represents the mean and standard error from three independent experiments. […] Cells were treated with 30 μM DV3-TATp53C′ or parental TATp53C′ peptide for 48 h in the presence or absence of a 200 μM excess of DV3 peptide. Cell viability was assessed by trypan blue exclusion. Data represents the mean and standard error from three independent experiments.
Cell Culture and Flow Cytometry. TA3/St, H1299 and 293T cells were maintained in DMEM plus 10% fetal bovine serum (FBS) and penicillin/streptomycin (P/S). Namalwa B cells (ATCC) were maintained in RPMI plus 10% FBS, P/S. All cells were maintained at 37° C. in 5% CO2. Short-term cell viability was assessed by counting Trypan blue excluding cells on a hemocytometer. For cell cycle analysis, peptide treated cells were analyzed by FACS with 10 μg/ml propidium iodide in 0.5% NP-40. DNA profiles were analyzed using a FACScan and CellQuest software (Becton Dickinson, San Jose, Calif.).

CXCR4 receptor = target: T1, CXCR4 receptor (Homo sapiens, UniProt P61073); assay: CXCR4 binding assay (inhibition of 12G5-PE anti-CXCR4 antibody binding, flow cytometry); details: linked DV3 and TAT domains versus single domains, FIG. 1B
T1 construct: CXCR4 expressing Namalwa cells were washed 3 times with PBS/0.5% BSA and incubated on ice; endogenous in cells; host or cells: Namalwa B cells (human Burkitt's lymphoma, ATCC)
T1 sequence (P61073 whole entry, the tested form may be a part): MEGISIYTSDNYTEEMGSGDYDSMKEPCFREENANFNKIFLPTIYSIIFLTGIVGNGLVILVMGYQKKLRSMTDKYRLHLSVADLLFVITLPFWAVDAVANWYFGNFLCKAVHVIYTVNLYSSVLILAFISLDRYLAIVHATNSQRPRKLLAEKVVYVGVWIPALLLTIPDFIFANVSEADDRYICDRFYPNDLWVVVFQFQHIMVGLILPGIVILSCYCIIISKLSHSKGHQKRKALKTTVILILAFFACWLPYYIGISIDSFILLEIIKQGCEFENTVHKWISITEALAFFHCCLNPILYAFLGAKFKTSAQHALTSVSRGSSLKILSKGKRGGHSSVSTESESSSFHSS
Procedure: (a) Sequences of peptides used in some embodiments. All peptides were synthesized using D-isomer residues, except for the TAT-RxL peptides. (b) Human Namalwa lymphoma cells that overexpress CXCR4 receptor were incubated with increasing concentrations of peptide, followed by fluorescent PE-conjugated anti-CXCR4 monoclonal antibody incubation, then analyzed for antibody binding to CXCR4 receptor (mean fluorescence) by flow cytometry. Graph plots relative fluorescence of cells with respect to cells treated with antibody only. Data represents the mean and standard error from three independent experiments.
CXCR4 binding assay. CXCR4 expressing Namalwa cells were washed 3 times with PBS/0.5% BSA and incubated on ice with phycoerythrin (PE)-labeled anti-CXCR4 monoclonal antibody (12G5-PE, R&D Systems, WI) and peptide. PE-labeled isotype matched antibody was used to control for non-specific cell surface binding. […]
DV3 Enhances the Affinity of TAT Peptides for CXCR4 Expressing Cells. […] Human Namalwa Burkitt's lymphoma cells overexpressing the CXCR4 receptor were treated with various peptides to block the CXCR4 receptor, then incubated with phycoerythrin (PE) conjugated anti-CXCR4 antibody and analyzed by flow cytometry.

[2] = target: CXCR4 receptor on human Namalwa Burkitt's lymphoma cells (human) (UniProt P61073); assay: flow cytometry on Namalwa cells; inhibition of 12G5-PE binding to CXCR4
Sequence of CXCR4 receptor on human Namalwa Burkitt's lymphoma cells (human) (P61073 whole entry): as the sequence (P61073 whole entry, the tested form may be a part) above

Namalwa lymphoma cells = assay: Mouse model of metastatic peritoneal lymphoma (survival); assay type: in vivo; details: SCID mice, Namalwa cells i.p., 180 nmol peptide once a day for 12 days, FIG. 5
Procedure: FIG. 5. Targeted DV3-TATp53C′ peptide has enhanced ability to treat mouse model of aggressive, metastatic peritoneal lymphoma. Namalwa lymphoma cells were intraperitoneally injected into SCID mice and allowed to proliferate for 48 hours. Mice were then injected once a day for 12 days with vehicle control (n=10), or 180 nmol DV3-TATp53C′ peptide (n=11), non-targeted, parental TATp53C′ peptide (n=5), or control DV3-only peptide (n=5).

[3] = test system: TA3/St mammary carcinoma cells; assay: Peptide treatment of CXCR4 non-expressing TA3/St cells (cell cycle by flow cytometry); assay type: cell-based; details: 5 μM peptide, 24 hours, DNA content by flow cytometry, FIG. 2B
Procedure: (§1) (a) Namalwa lymphoma cells were treated with 40 μM TATp53C′ or DV3-TATp53C′ peptide for 48 h. Cell viability was assessed by trypan blue exclusion. Data represents the mean and standard error from three independent experiments. (b) DV3-TATp53C′ and TATp53C′ peptides induce similar level of p53-dependent G1 cell cycle arrest in CXCR4 non-expressing TA3/St mammary carcinoma cells. Cells were treated with 5 μM peptide for 24 hours and analyzed for DNA content by flow cytometry. (c) DV3-TATp53C′, TATp53C′ and control DV3 peptide (30 μM) have no effect on CXCR4 non-expressing, p53-deficient H1299 lung adenocarcinoma cells. […] Cells were treated with indicated concentrations of cdk2 antagonists TAT-RxL or DV3-TAT-RxL peptides for 48 h. Cell viability was assessed by trypan blue exclusion. Data represents the mean and standard error from three independent experiments. […] Apoptosis was determined by <2N DNA content as measured by flow cytometry and DNA staining.
(§2) Cell Culture and Flow Cytometry. […] Short-term cell viability was assessed by counting Trypan blue excluding cells on a hemocytometer. For cell cycle analysis, peptide treated cells were analyzed by FACS with 10 μg/ml propidium iodide in 0.5% NP-40. DNA profiles were analyzed using a FACScan and CellQuest software (Becton Dickinson, San Jose, Calif.).

[4] = test system: H1299 lung adenocarcinoma cells; assay: Peptide treatment of p53-deficient H1299 cells; assay type: cell-based, human; details: 30 μM peptide, FIG. 2C
Procedure: as §1, §2

CC(C)C[C@@H](N)C(=O)NCC(=O)N[C@H](C)C(=O)N[C@H](CO)C(=O)N[C@H](Cc1c[nH]c2ccccc12)C(=O)N[C@H](Cc1c[nH]cn1)C(=O)N[C@H](CCCNC(=N)N)C(=O)N1CCC[C@@H]1C(=O)N[C@H](CC(=O)O)C(=O)N[C@H](CCCCN)C(=O)NCC(=O)N[C@H](CCCNC(=N)N)C(=O)N[C@H](CCCNC(=N)N)C(=O)N[C@H](CCCNC(=N)N)C(=O)N[C@H](CCC(N)=O)C(=O)N[C@H](CCCNC(=N)N)C(=O)N[C@H](CCCNC(=N)N)C(=O)N[C@H](CCCCN)C(=O)N[C@H](CCCCN)C(=O)N[C@H](CCCNC(=N)N)C(=O)NCC(=O)O [DV3-TAT]
cell viability / cell number (in words) ([1]; Namalwa cells, 48 h): minimal effects on cell number
increased affinity for the CXCR4 receptor (CXCR4 receptor): ~100 fold

DV3-TAT peptide
IC50 [2]: < 10 nM
fold increased affinity (against DV3 or TAT peptide alone) [2]: 100 fold

DV3-TATp53C′ peptide
IC50 [2]: < 10 nM

[dL]G[dA][dS][dW][dH][dR][dP][dD][dK]G[dR][dR][dR][dQ][dR][dR][dK][dK][dR]G[dK][dK][dH][dR][dS][dT][dS][dQ]G[dK][dK][dS][dK][dL][dH][dS][dS][dH][dA][dR][dS]G [DV3-TATp53C′]
median survival (Namalwa lymphoma cells): 41 days
reduction of cell number ([1]; 40 μM peptide, 48 h, trypan blue exclusion, FIG. 2A): > 80%
cell killing in presence of excess competing DV3 peptide ([1]; Namalwa cells, 30 μM peptide co-administered with 200 μM DV3 peptide, 48 h, FIG. 3B): reduced the potency of DV3-TATp53C′ peptide to levels similar to that of parental TATp53C′ peptide
cell viability / cell number (in words) ([1]; Namalwa cells, 48 h): decreased viability to a significantly greater extent than treatment with parental TAT-p53C′ peptide
cell number / cell killing (in words) ([1]; Namalwa cells, p53 peptides, FIG. 2A): enhanced cell killing
G1 cell cycle arrest [3]: induced a G1 arrest that was indistinguishable from treatment with parental TATp53C′ peptide
effect on p53-deficient H1299 cells [4]: little to no effect

[dL]G[dA][dS][dW][dH][dR][dP][dD][dK] [DV3 peptide (CXCR4 receptor ligand)]
IC50 [2]: 1000 nM
